Results from patent US8501796B2, “Ester pro-drugs of [3-(1-(1H-imidazol-4-yl)ethyl)-2-methylphenyl] methanol for lowering intraocular pressure” (Allergan, Inc., priority 2010, dated 2013).

Key:
[1] = tested on: Normotensive male Dutch-Belted rabbits; experiment: IOP lowering in normotensive rabbits after a topical eye drop; assay type: in vivo; details: rabbit, single 50 μl topical drop yielding 0.15% or 0.3% of active metabolite, 1% polysorbate 80 pH 5.5; IOP measured 0-8 hours; FIG. 1
Experimental: The experimental animals used, were Normotensive male Dutch-Belted rabbits (Myrtle's Rabbitry) over 6 months in age (n=4/compound/dose screened). A single drop (50 μl) of the drug formulation, which yields 0.15% or 0.3% of the active metabolite when completely hydrolyzed in 1% polysorbate 80 at pH 5.5, was administered topically by pipette onto the right eye (treated eye) at approximately 0700 hours. IOP of the rabbits (treated and untreated eyes) was measured 0 hours before and at 0.5, 1, 2, 3, 4, 6 and 8 hours after topical eyedrop administration. IOP at the time of eye drop administration (0 hours) was used as a baseline value. Prior to the tonometric measurements, 0.05% proparacaine (50 μl) was administered to each eye. Tonometric IOP measurements were obtained with a Mentor Pneumontonmeter. Additionally, all studies were masked. At least 1 week of wash-out time was allowed for each rabbit between dosings. All animals were examined for sedation, ocular irritation, and changes in pupil diameter throughout the course of the experiments.

monkeys = experiment: Intraocular pressure-lowering effect in monkeys compared to placebo; assay type: in vivo; details: monkeys treated with composition containing the compound

Cc1c(COC(=O)C(C)C)cccc1[C@H](C)c1c[nH]cn1 [Compound 1, iso-Butyric acid 3-[(S)-1-(1H-imidazol-4-yl)-ethyl]-2-methyl-benzyl ester]
IOP lowering capacity (efficacy) compared to Alphagan P [1]: equal or comparable efficacy to Alphagan P® | intraocular pressure duration compared to Alphagan P [1]: longer intraocular pressure duration than Alphagan P® | time for which the decrease in intraocular pressure is maintained (monkeys): up to 24 hours
